Results on twelve molecules are retold here after patent US11970480.

The conditions of data set [1]: from 5,5′-(propane-1,3-diylbis(oxy))bis(4-chloro-3-nitrobenzamide) + butane-1,4-diamine; snar bond; 15-membered ring; DIEA; DMSO; 714.0 mM; 120.0 °C; 2 steps.
The conditions of data set [2]: 21-membered ring.
For data set [3] the following is noted: amide bond, 2 steps.

Where two headings read alike, the source gives them in different places.

Take `NC(=O)c1cc2c(c([N+](=O)[O-])c1)NCCCCNc1c(cc(C(N)=O)cc1[N+](=O)[O-])OCCCO2`: in data set [1], the ring closure, crude yield was determined as 90%.
Consider `CCn1nc(C)c2c1C(=O)Nc1nc3cc(C(N)=O)ccc3n1CCCCn1c(nc3c(N(C)Cc4ccc(OC)cc4)cccc31)NC(=O)c1cc(C)nn1CCCCC2`, for which, under “from CCn1nc(C)c(CCCCCn2nc(C)cc2C(=O)Nc2nc3c(N(C)Cc4ccc(OC)cc4)cccc3n2CCCCn2c(N)nc3cc(C(N)=O)ccc32)c1C(=O)O, amide bond, EDC/HOBt/DMAP, DMF, 23.7 mM, 60.0 °C, 32.0 h”, the ring closure, yield of all isomers amounted to 20.4%. The ring closure, isolated yield in data set [2] (from CCn1nc(C)c(CCCCCn2nc(C)cc2C(=O)Nc2nc3c(N(C)Cc4ccc(OC)cc4)cccc3n2CCCCn2c(N)nc3cc(C(N)=O)ccc32)c1C(=O)O, amide bond, EDC/HOBt/DMAP, DMF, 23.7 mM, 60.0 °C) was 20.4%.
“8-ethyl-10,18,30-trimethyl-7,20-dioxo-7,8,11,12,13,14,15,20,21,28,29,30,31,32-tetradecahydro-benzo[4,5]imidazo[2,1-b]benzo[4,5]imidazo[1,2-l]dipyrazolo[5,1-m:4′,3′-t][1,3,6,9,11,14]hexaazacyclodocosine-3,24-dicarboxamide”: the ring closure, yield after HPLC in data set [3] (22-membered ring, HATU/DIEA, NMP, 68.9 mM, 140.0 °C) is 4.56%.
Turning to `CCn1nc(C)c2c1C(=O)Nc1nc3cc(C(N)=O)ccc3n1CC=CCn1c(nc3cc(C(N)=O)ccc31)NC(=O)c1cc(C)nn1CCCCC2`, the ring closure, yield of all isomers (from C=CCn1c(NC(=O)c2cc(C)nn2CCCCCc2c(C)nn(CC)c2C(=O)Nc2nc3cc(C(N)=O)ccc3n2CC=C)nc2cc(C(N)=O)ccc21, rcm bond, Hoveyda-Grubbs II, 1,2-dichloroethane, 2.69 mM, 100.0 °C, 4.0 h) amounted to 35%. The same molecule registered a ring closure, isolated yield in data set [2] (from C=CCn1c(NC(=O)c2cc(C)nn2CCCCCc2c(C)nn(CC)c2C(=O)Nc2nc3cc(C(N)=O)ccc3n2CC=C)nc2cc(C(N)=O)ccc21, rcm bond, Hoveyda-Grubbs II (20 mol%), DCE, 2.69 mM, 100.0 °C) of 35%.
Turning to “2-amino-1-(3-(3-(2-(2-amino-5-carbamoyl-1H-benzo[d]imidazol-1-yl)ethyl)phenyl)-propyl)-1H-benzo[d]imidazole-5-carboxamide + 4-(5-(5-carboxy-3-methyl-1H-pyrazol-1-yl)pentyl)-1-ethyl-3-methyl-1H-pyrazole-5-carboxylic acid”, the ring closure, yield after HPLC in data set [3] (the molecule shown is the open-chain precursor, 25-membered ring, HATU, NMP, 40.3 mM, 40.0 °C) stood at 0.6%.
With “(E)-8-Ethyl-1,26-dimethoxy-10,18-dimethyl-7,20-dioxo-6,7,8,11,12,13,14,15,20,21,28,31-dodecahydrobenzo[4,5]imidazo[1,2-a]benzo[4,5]imidazo[2,1-p]dipyrazolo[5,1-e:4′,3′-1][1,3,6,15,17]pentaazacyclohenicosine-3,24-dicarboxamide, bis trifluoroacetic acid salt”, in data set [3] (21-membered ring, HATU/TEA, DMF, 24.4 mM, 100.0 °C), the ring closure, yield after HPLC was determined as 1%.
For the molecule “8-Ethyl-10,13,13,18-tetramethyl-7,20-dioxo-6,7,8,11,12,13,14,15,20,21,28,29,30,31-tetradecahydrobenzo[4,5]imidazo[1,2-a]benzo[4,5]imidazo[2,1-p]dipyrazolo[5,1-e:4′,3′-1][1,3,6,15,17]pentaazacyclohenicosine-3,24-dicarboxamide”, in data set [3] (21-membered ring, HATU, NMP, 51.0 mM, 40.0 °C), the ring closure, yield after HPLC was determined as 3.4%.
Regarding “8-Ethyl-10,17-dimethyl-7,19-dioxo-7,8,11,12,13,14,19,20,27,28,29,30-dodecahydro-6H-benzo[4,5]imidazo[1,2-a]benzo[4,5]imidazo[2,1-o]dipyrazolo[5,1-e:4′,3′-k][1,3,6,14,16]pentaazacycloicosine-3,23-dicarboxamide”, in data set [3] (20-membered ring, HATU/DIEA, NMP, 61.5 mM, 120.0 °C), the ring closure, yield after HPLC was determined as 2%.
With `CCn1nc(C)c2c1C(=O)Nc1nc3cc(C(N)=O)ccc3n1CCCCn1c(nc3c(CNC(=O)OC(C)(C)C)cccc31)NC(=O)c1cc(C)nn1CCCCC2`, where the note is “from CCn1nc(C)c(CCCCCn2nc(C)cc2C(=O)Nc2nc3c(CNC(=O)OC(C)(C)C)cccc3n2CCCCn2c(N)nc3cc(C(N)=O)ccc32)c1C(=O)O, amide bond, EDC/HOBt, DIEA, cat. DMAP, DMF, 18.2 mM, 60.0 °C, 6.0 h”, the ring closure, yield of all isomers amounted to 56%. The ring closure, isolated yield in data set [2] (from CCn1nc(C)c(CCCCCn2nc(C)cc2C(=O)Nc2nc3c(CNC(=O)OC(C)(C)C)cccc3n2CCCCn2c(N)nc3cc(C(N)=O)ccc32)c1C(=O)O, amide bond, EDC/HOBt/DIEA/DMAP, DMF, 18.2 mM, 60.0 °C) was found to be 56%.
Regarding “(E)-1,26-Dibromo-8-ethyl-10,18-dimethyl-7,20-dioxo-6,7,8,11,12,13,14,15,20,21,28,31-dodecahydrobenzo[4,5]imidazo[1,2-a]benzo[4,5]imidazo[2,1-p]dipyrazolo[5,1-e:4′,3′-1][1,3,6,15,17]pentaazacyclohenicosine-3,24-dicarboxamide”, in data set [2] (amide bond, HATU/DIEA, DMF, 59.3 mM, 90.0 °C, 2 steps), the ring closure, isolated yield amounted to 24%.
Take “(1r,39r)-14-ethyl-16,25-dimethyl-12,28-dioxo-2,9,11,14,15,23,24,29,31,38-decaazaoctacyclo[37.2.2.0^2,^1^0.0^3,^8.0^13,^1^7.0^23,^2^7.0^3^0,^3^8.0^32,^3^7]tritetraconta-3,5,7,9,13(17),15,24,26,30,32,34,36-dodecaene-6,34-Dicarboxamide”: in data set [2] (amide bond, HATU/DIEA, DMF, 116.0 mM, 80.0 °C, 2 steps), the ring closure, isolated yield was 0.3%.
“8-Ethyl-10,18-dimethyl-7,20-dioxo-6,7,8,11,14,15,20,21,28,29,30,31-dodecahydrobenzo[4,5]imidazo[1,2-a]benzo[4,5]imidazo[2,1-p]dipyrazolo[5,1-e:4′,3′-1][1,3,6,15,17]pentaazacyclohenicosine-3,24-dicarboxamide” displayed a ring closure, yield after HPLC in data set [3] (21-membered ring, HATU/DIEA, NMP, 92.4 mM, 80.0 °C) of 1.7%.
